Experimental data reported in article PMC7232165 (Viruses, 2020).
Read-outs that look alike come from different tables or passages of the source.

Columns and labels:
[1] = HLMs; cited from earlier work
HIV-1NL4-3 = assay: Anti-HIV-1 assay in TZM-GFP cells (LTR-activated GFP expression); details: for EC50: read-out: EC50 (concentration of compound inhibiting HIV-1 replication by 50%); for antiviral activity against HIV-1 (in words): screened at 20 μM
in vitro = type: cell-based; details: human, TZM-GFP cells, 72 h, XTT; mean ± standard deviation; read-out: CC50 (concentration of compound causing 50% cell death)
TZM-GFP cells = assay: in vitro; type: cell-based; details: for CC50: TZM-GFP cells, 72 h, XTT, mean ± standard deviation, read-out: CC50 (concentration of compound causing 50% cell death)
[2] = molecular target: covalently-crosslinked hexameric CA A14C/E45C/W184A/M185A (CA121) (Human immunodeficiency virus type 1 group M subtype B, UniProt P12493, A146C/E177C/M317A/W316A); assay: Thermal shift assay (TSA) for effect on HIV-1 CA hexamer stability; type: binding; details: compound 20 µM
[3] = Microsomal stability assay, human liver microsomes; type: in vitro ADME; details: for half-life at 1 µM: human liver microsomes
[4] = Microsomal stability assay, mouse liver microsomes; type: in vitro ADME
[5] = Human immunodeficiency virus 1, 48 h

Row | SMILES | EC50 (HIV-1NL4-3; [5]) | CC50 at 72 h (in vitro) | other results
1 | Cc1[nH]c2ccccc2c1CC(=O)N[C@@H](Cc1ccccc1)C(=O)N(C)c1ccccc1 [Compound 1, PF74, reference compound] | 0.61 ± 0.2 µM | – | half-life (t1/2) in human liver microsomes [1]: less than 1 min
2 | COC(=O)C1CCCN1C(=O)C(NC(=O)Cn1c(=O)[nH]c2ccccc2c1=O)C(C)C (stereo not shown) [Compound 2] | > 20 µM | > 100 µM | cytotoxicity (in words) (TZM-GFP cells; screened at 100 μM): no cytotoxicity; antiviral activity against HIV-1 (in words) (HIV-1NL4-3): no significant antiviral activity
3 | COC(=O)[C@@H]1CCCN1C(=O)CNC(=O)Cn1c(=O)[nH]c2ccccc2c1=O [Compound 3] | > 20 µM | > 100 µM | effect on CA hexamer stability (in words) [2]: complete loss of the CA hexamer stabilizing effect
4 | COC(=O)[C@@H]1CCCN1C(=O)[C@H](Cc1cccc2cc[nH]c12)NC(=O)Cn1c(=O)[nH]c2ccccc2c1=O [Compound 4] | > 20 µM | < 100 µM | –
5 | COC(=O)[C@@H]1CCCN1C(=O)[C@H](Cc1cccc2cc[nH]c12)NC(=O)Cn1c(=O)[nH]c2ccccc2c1=O [Compound 5] | – | – | CC50 (TZM-GFP cells): > 100 µM; EC50 (HIV-1NL4-3; TZM-GFP cells, MOI = 1, 48 h, mean ± standard deviation, at least two independent experiments): > 20 µM
6 | COC(=O)[C@@H]1CCCN1C(=O)[C@H](CSCc1ccccc1)NC(=O)Cn1c(=O)[nH]c2ccccc2c1=O [Compound 6] | > 20 µM | > 100 µM | effect on CA hexamer stability (in words) [2]: no such effect was observed
7 | CCC(C)[C@H](NC(=O)Cn1c(=O)[nH]c2ccccc2c1=O)C(=O)N1CCC[C@H]1C(=O)OC (stereo partly shown) [Compound 7] | > 20 µM | > 100 µM | effect on CA hexamer stability (in words) [2]: no such effect was observed
8 | O=C(Cn1c(=O)[nH]c2ccccc2c1=O)N[C@@H](CSCc1ccccc1)C(=O)N1CCC[C@H]1C(=O)Nc1ccccc1 [Compound 8] | > 20 µM | 44 ± 5 µM | –
9 | O=C(Cn1c(=O)[nH]c2ccccc2c1=O)N[C@@H](Cc1cccc2cc[nH]c12)C(=O)N1CCC[C@H]1C(=O)Nc1ccccc1 [Compound 9] | > 20 µM | > 100 µM | –
10 | O=C(Cn1c(=O)[nH]c2ccccc2c1=O)N[C@@H](Cc1ccccc1)C(=O)N1CCC[C@H]1C(=O)Nc1ccccc1 [Compound 10] | 1.6 ± 0.1 µM | > 100 µM | effect on CA hexamer stability (in words) [2]: moderate CA hexamer stabilizing effects; half-life (t1/2) in HLMs, fold longer than PF74 ([3]; HLMs, relative to PF74): 44 fold; half-life at 1 µM ([3]; pH 7.4, with Cobicistat 0.5 µM (CYP3A inhibitor), in the presence of CYP3A inhibitor Cobicistat 0.5 µM, read-out: Phase I metabolic stability t1/2, HLM (+Cobi)): > 120 min; half-life at 1 µM ([3]; pH 7.4, 1 µM compound, NADPH, read-out: Phase I metabolic stability t1/2, HLM): 31 min; half-life at 1 µM ([4]; pH 7.4, mouse liver microsomes, 1 µM compound, NADPH, read-out: Phase I metabolic stability t1/2, MLM): 2.9 min; half-life at 1 µM ([4]; pH 7.4, with Cobicistat 0.5 µM (CYP3A inhibitor), mouse liver microsomes, in the presence of CYP3A inhibitor Cobicistat 0.5 µM, read-out: Phase I metabolic stability t1/2, MLM (+Cobi)): 85 min; antiviral potency (EC50), fold less than PF74 (HIV-1NL4-3; relative to PF74 EC50 = 0.61 μM): 2.5 fold; antiviral activity against HIV-1 (in words) (HIV-1NL4-3): significant anti-HIV-1 activities
11 | CN(C(=O)[C@H](Cc1ccccc1)NC(=O)Cn1c(=O)[nH]c2ccccc2c1=O)c1ccccc1 [Compound 11] | 6.9 ± 0.8 µM | > 100 µM | effect on CA hexamer stability (in words) [2]: moderate CA hexamer stabilizing effects; antiviral activity against HIV-1 (in words) (HIV-1NL4-3): significant anti-HIV-1 activities
12 | O=C(Cn1c(=O)[nH]c2ccccc2c1=O)N[C@@H](Cc1ccccc1)C(=O)Nc1ccccc1 [Compound 12] | – | – | effect on CA hexamer stability (in words) [2]: did not show activity in either assay; CC50 (TZM-GFP cells): < 100 µM; EC50 (HIV-1NL4-3): > 20 µM; antiviral activity against HIV-1 (in words) (HIV-1NL4-3): did not show activity in either assay
13 | CN(C(=O)[C@H](Cc1ccccc1)NC(=O)Cn1c(=O)[nH]c2ccccc2c1=O)c1ccc(F)cc1 [Compound 13] | – | – | effect on CA hexamer stability (in words) [2]: moderate CA hexamer stabilizing effects; CC50 (TZM-GFP cells): > 100 µM; EC50 (HIV-1NL4-3): 8 ± 1.3 µM; antiviral activity against HIV-1 (in words) (HIV-1NL4-3): significant anti-HIV-1 activities
14 | CC(C)C[C@H](NC(=O)Cn1c(=O)[nH]c2ccccc2c1=O)C(=O)N(C)c1ccccc1 [Compound 14] | – | – | CC50 (TZM-GFP cells): > 100 µM; EC50 (HIV-1NL4-3): > 20 µM
15 | CC(C)C[C@H](NC(=O)Cn1c(=O)[nH]c2ccccc2c1=O)C(=O)Nc1ccccc1 [Compound 15] | – | – | CC50 (TZM-GFP cells): > 100 µM; EC50 (HIV-1NL4-3): > 20 µM
16 | Cc1ccc(N(C)C(=O)[C@@H](NC(=O)Cn2c(=O)[nH]c3ccccc3c2=O)C(C)(C)C)cc1 [Compound 16] | – | – | CC50 (TZM-GFP cells): > 100 µM; EC50 (HIV-1NL4-3): > 20 µM
17 | CC(C)(C)[C@H](NC(=O)Cn1c(=O)[nH]c2ccccc2c1=O)C(=O)Nc1ccccc1 [Compound 17] | – | – | CC50 (TZM-GFP cells): > 100 µM; EC50 (HIV-1NL4-3): > 20 µM
18 | CCC(C)[C@H](NC(=O)Cn1c(=O)[nH]c2ccccc2c1=O)C(=O)N(C)c1ccccc1 (stereo partly shown) [Compound 18] | – | – | CC50 (TZM-GFP cells): > 100 µM; EC50 (HIV-1NL4-3): > 20 µM
19 | CCC(C)[C@H](NC(=O)Cn1c(=O)[nH]c2ccccc2c1=O)C(=O)Nc1ccccc1 (stereo partly shown) [Compound 19] | – | – | CC50 (TZM-GFP cells): > 100 µM; EC50 (HIV-1NL4-3): > 20 µM
20 | CCC(C)[C@H](NC(=O)Cn1c(=O)[nH]c2ccccc2c1=O)C(=O)N(C)c1ccc(Cl)cc1 (stereo partly shown) [Compound 20] | – | – | CC50 (TZM-GFP cells): > 100 µM; EC50 (HIV-1NL4-3): > 20 µM

Row | SMILES | EC50 (HIV-1NL4-3; [5]) | CC50 at 72 h (in vitro) | other results
21 | CCC(C)[C@H](NC(=O)Cn1c(=O)[nH]c2ccccc2c1=O)C(=O)Nc1ccc(-c2nnn[nH]2)cc1 (stereo partly shown) [Compound 21] | – | – | CC50 (TZM-GFP cells): > 100 µM; EC50 (HIV-1NL4-3): > 20 µM
22 | O=C(Cn1c(S)nnc1-c1ccccc1)NNc1ccccn1 [Compound 22] | > 20 µM | > 100 µM | –
23 | O=C(Cn1c(S)nnc1-c1ccccc1)NNc1ccccc1 [Compound 23] | > 20 µM | > 100 µM | –
24 | O=C(Cn1c(S)nnc1-c1ccccc1)NNc1ccc(F)cc1 [Compound 24] | > 20 µM | > 100 µM | –
25 | N#Cc1ccc(NNC(=O)Cn2c(S)nnc2-c2ccccc2)cc1 [Compound 25] | > 20 µM | > 100 µM | –
26 | N#Cc1cccc(NNC(=O)Cn2c(S)nnc2-c2ccccc2)c1 [Compound 26] | > 20 µM | > 100 µM | –
27 | Cc1ccc(-c2nnc(S)n2CC(=O)NNc2ccccc2)cc1 [Compound 27] | > 20 µM | ~100 µM | –
28 | Cc1ccc(-c2nnc(S)n2CC(=O)NNc2ccc(F)cc2)cc1 [Compound 28] | > 20 µM | > 100 µM | –
29 | Cc1ccc(-c2nnc(S)n2CC(=O)NNc2ccc(C#N)cc2)cc1 [Compound 29] | > 20 µM | > 100 µM | –
30 | Cc1ccc(-c2nnc(S)n2CC(=O)NNc2ccc(-c3ccccc3)cc2)cc1 [Compound 30] | > 20 µM | > 100 µM | –
31 | Cc1ccc(-c2nnc(S)n2CC(=O)NNc2ccccn2)cc1 [Compound 31] | > 20 µM | > 100 µM | –
32 | Cc1ccccc1-c1nnc(S)n1CC(=O)NNc1ccccc1 [Compound 32] | > 20 µM | > 100 µM | –
33 | Cc1ccc(NNC(=O)Cn2c(S)nnc2-c2ccccc2C)cc1 [Compound 33] | > 20 µM | > 100 µM | –
34 | Cc1ccccc1-c1nnc(S)n1CC(=O)NNc1ccc(C#N)cc1 [Compound 34] | > 20 µM | > 100 µM | –
35 | O=C(Cn1c(S)nnc1-c1cccc2ccccc12)NNc1ccccc1 [Compound 35] | > 20 µM | > 100 µM | –
36 | O=C(Cn1c(S)nnc1-c1ccccc1)NNc1ccc(-c2ccccc2)cc1 [Compound 36] | > 20 µM | > 100 µM | –
37 | Cc1ccc(NNC(=O)Cn2c(S)nnc2-c2cccc3ccccc23)cc1 [Compound 37] | > 20 µM | > 100 µM | –
38 | N#Cc1ccc(NNC(=O)Cn2c(S)nnc2-c2cccc3ccccc23)cc1 [Compound 38] | > 20 µM | > 100 µM | –
39 | CN(NC(=O)Cn1c(S)nnc1-c1ccccc1)c1ccccc1 [Compound 39] | > 20 µM | > 50 µM | –
